Laboratory results published in US9487490B2, “3-cyclohexenyl and cyclohexyl substituted indole and indazole compounds as RORgammaT inhibitors and uses thereof” (Merck Sharp & Dohme Corp., priority 2012, dated 2016).

The compounds below were run against human RORgammaT-Ligand Binding Domain (LBD) (Homo sapiens (Human), UniProt P51449) (assay: RORγ-Ligand Binding Domain TR-FRET assay (co-activator peptide SRC1_2 recruitment)). Details: HIS-tagged RORγ-LBD 3 nM, biotinylated SRC1 LXXLL peptide 100 nM, incubated overnight at 4° C., 665 nm/615 nm signal quotient; read-out: Fret IC50.
Format: biochemical
From the text: Activation of RORgammaT activity can be measured using, e.g., biochemical TR-FRET assay. In such an assay, interaction of cofactor-derived peptides with human RORgammaT-Ligand Binding Domain (LBD) can be measured.
To identify novel antagonists of RORgammaT, an assay was developed which employs the interaction of RORgammaT with its co-activator peptide SRC1_2. […] The RORγ-Ligand Binding Domain TR-FRET Assay was run according to the following protocol.
HIS-tagged RORγ-LBD protein was expressed in SF9 cells using a baculovirus expression system. The RORγ-LBD protein was purified by glutathione sepharose chromatography. Separately, SF9 cells not expressing any recombinant protein were lysed and the lysate was added to the purified RORγ-LBD at 0.25 μl lysate (from 10,000 SF9 cells)/nM purified protein. The mixture was then diluted in assay buffer (50 mM Tris pH 7.0, 50 mM KCl, 1 mM EDTA, 0.1 mM DTT) to obtain RORγ-LBD final concentration of 3 nM in 384-well assay plate.
Compounds to be tested were injected to the assay plate using Acoustic Droplet Ejection technology by Echo 550 liquid handler (Labcyte, Calif.).

Sequence of human RORgammaT-Ligand Binding Domain (LBD) (P51449 269-508): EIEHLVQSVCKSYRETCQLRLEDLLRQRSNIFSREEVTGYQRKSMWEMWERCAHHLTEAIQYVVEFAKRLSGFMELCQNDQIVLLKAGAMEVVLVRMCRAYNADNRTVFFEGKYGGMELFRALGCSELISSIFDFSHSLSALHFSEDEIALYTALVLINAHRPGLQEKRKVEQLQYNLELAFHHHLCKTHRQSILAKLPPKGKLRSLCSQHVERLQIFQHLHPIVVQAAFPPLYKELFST

| SMILES | IC50 |
| --- | --- |
| CNCC(CO)OC(=O)c1ccc2c(C3=CCC(C(=O)O)CC3)nn(C(=O)c3c(Cl)cccc3C(F)(F)F)c2c1 (stereo not drawn) [Example 4Z, 4-(1-(2-chloro-6-(trifluoromethyl)benzoyl)-6-(((1-hydroxy-3-(methylamino)propan-2-yl)oxy)carbonyl)-1H-indazol-3-yl)cyclohex-3-enecarboxylic acid] | 258 nM |
| O=C(O)C1CC=C(c2cn(C(=O)c3c(Cl)cccc3C(F)(F)F)c3cccc(F)c23)CC1 (stereo not drawn) [Example 5A, 4-(1-(2-chloro-6-(trifluoromethyl)benzoyl)-4-fluoro-1H-indol-3-yl)cyclohex-3-enecarboxylic acid] | 4 nM |
| O=C(O)C1CCC(c2nn(C(=O)c3c(Cl)cccc3C(F)(F)F)c3cccc(F)c23)=CC1O (stereo not drawn) [Example 6A, 4-(1-(2-chloro-6-(trifluoromethyl)benzoyl)-4-fluoro-1H-indazol-3-yl)-2-hydroxycyclohex-3-enecarboxylic acid] | 2 nM |
| O=C(O)C1CC=C(c2nn(C(=O)c3c(Cl)cccc3C(F)(F)F)c3cccc(F)c23)CC1O (stereo not drawn) [Example 6B, 4-(1-(2-chloro-6-(trifluoromethyl)benzoyl)-4-fluoro-1H-indazol-3-yl)-6-hydroxycyclohex-3-enecarboxylic acid] | 15 nM |
| CC1(c2nn(C(=O)c3c(Cl)cccc3C(F)(F)F)c3cccc(F)c23)CCC(C(=O)O)CC1 (stereo not drawn) [Example 7A, 4-(1-(2-chloro-6-(trifluoromethyl)benzoyl)-4-fluoro-1H-indazol-3-yl)-4-methylcyclohexanecarboxylic acid] | 1880 nM |

Now from value to compound:

| IC50 | SMILES |
| --- | --- |
| 663 nM | C[C@]1(c2nn(C(=O)c3c(Cl)cccc3C(F)(F)F)c3cccc(F)c32)CC[C@H](C(=O)O)CC1 [Example 7B, (trans)-4-(1-(2-chloro-6-(trifluoromethyl)benzoyl)-4-fluoro-1H-indazol-3-yl)-4-methyl cyclohexanecarboxylic acid] |
| 872 nM | C[C@]1(c2nn(C(=O)c3c(Cl)cccc3C(F)(F)F)c3cccc(F)c32)CC[C@@H](C(=O)O)CC1 [Example 7C, (cis)-4-(1-(2-chloro-6-(trifluoromethyl)benzoyl)-4-fluoro-1H-indazol-3-yl)-4-methylcyclohexanecarboxylic acid] |
| 50 nM | C[C@]1(C(=O)O)CC[C@H](c2nn(C(=O)c3c(Cl)cccc3C(F)(F)F)c3cccc(F)c32)CC1 [Example 9A, (trans)-4-(1-(2-chloro-6-(trifluoromethyl)benzoyl)-4-fluoro-1H-indazol-3-yl)-1-methylcyclohexanecarboxylic acid] |
| 5020 nM | C[C@]1(C(=O)O)CC[C@@H](c2nn(C(=O)c3c(Cl)cccc3C(F)(F)F)c3cccc(F)c32)CC1 [Example 9B, (cis)-4-(1-(2-chloro-6-(trifluoromethyl)benzoyl)-4-fluoro-1H-indazol-3-yl)-1-methylcyclohexanecarboxylic acid] |
| 207 nM | O=C(c1c(Cl)cccc1C(F)(F)F)n1nc([C@H]2CC[C@H](C(=O)O)CC2)c2ncccc21 [Example 11A, (trans)-4-(1-(2-chloro-6-(trifluoromethyl)benzoyl)-1H-pyrazolo[4,3-b]pyridin-3-yl)cyclohexanecarboxylic acid] |
| 10000 nM | O=C(c1c(Cl)cccc1C(F)(F)F)n1nc([C@H]2CC[C@@H](C(=O)O)CC2)c2ncccc21 [Example 11B, (cis)-4-(1-(2-chloro-6-(trifluoromethyl)benzoyl)-1H-pyrazolo[4,3-b]pyridin-3-yl)cyclohexanecarboxylic acid] |
| 2470 nM | O=C(O)C1CCC(O)(c2nn(C(=O)c3c(Cl)cccc3C(F)(F)F)c3cccc(F)c23)CC1 (stereo not drawn) [Example 13A, 4-(1-(2-chloro-6-(trifluoromethyl)benzoyl)-4-fluoro-1H-indazol-3-yl)-4-hydroxycyclohexanecarboxylic acid] |
